The assay concerns the target T1, HPRT1 (Homo sapiens, UniProt P00492).
T1 sequence (P00492 2-218): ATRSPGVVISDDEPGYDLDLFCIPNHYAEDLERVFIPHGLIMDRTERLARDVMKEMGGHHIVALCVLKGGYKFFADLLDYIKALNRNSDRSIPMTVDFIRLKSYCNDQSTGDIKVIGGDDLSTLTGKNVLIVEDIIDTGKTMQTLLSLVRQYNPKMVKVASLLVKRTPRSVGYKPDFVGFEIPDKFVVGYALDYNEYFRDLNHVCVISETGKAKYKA
The experiment in a line: biochemical.

Molecule `O=c1[nH]cnc2nc[nH]c12` [HX, hypoxanthine] yielded an IC50 of 7.7 µM. This lies in the single-digit micromolar range.

One may read the IC50 as the concentration that inhibits the measured activity by half. The low end stands for inhibition by little substance, the high end for a need for much substance.

(Values after paper PMC4670083 (Nature medicine, 2015).)
